Experimental data reported in US7534763B2 (Bristol-Myers Squibb Company, priority 2004, dated 2009).
Read-outs that look alike come from different tables or passages of the source. Where a SMILES comes first, the peptide text is derived from it. [ ]: non-standard residue; d: D form. The star is where a group is joined. ξ: configuration not given here. Ala(6-(2-MePh)pyridin-3-yl) = Cc1ccccc1-c1ccc(C[C@H](N)C(=O)O)cn1; Phe(4-(2-Et-4-HO-Ph)) = CCc1cc(O)ccc1-c1ccc(C[C@H](N)C(=O)O)cc1; Bip(2'-Et-4'-OMe) = CCc1cc(OC)ccc1-c1ccc(C[C@H](N)C(=O)O)cc1; αMePhe(2-F) = C[C@](N)(Cc1ccccc1F)C(=O)O; ξαMePhe(2-F) = CC(N)(Cc1ccccc1F)C(=O)O; ξαMeP = CC1(C(=O)O)CCCN1; Aib = CC(C)(N)C(=O)O; Moc = COC(=O)*

Experiments:
[1] = Solubility of compound of SEQ ID NO:9 in the presence of Zn(II) / Zn adduct; format: physicochemical; settings: pH 6.8, 50 mM phosphate buffer
Method: Once the Zn/Compound of SEQ ID NO:9 adduct was formed, formulation development studies were conducted in order to evaluate the solubility of the compound of SEQ ID NO:9 in the presence of Zn(II). An excess amount of the compound of SEQ ID NO:9 was suspended in pH 6.8, 50 mM phosphate buffer. The suspension was then placed on an orbital shaker (Model, 100 RPM) at ambient temperature for 12 hours. The suspension was then centrifuged (Model, speed) and the saturated the clear supernatant of the compound of SEQ ID NO:9 was collected into 10 ml centrifuge tubes. A predetermined amount of zinc acetate solution (50 mM, pH 6.8 phosphate buffer) was added into the saturated solution and then precipitated. The concentration of the compound of SEQ ID NO:9 in solution was obtained by centrifuging the suspension and analyzing the clear supernatants by HPLC.
To confirm that the Zn/Compound of SEQ ID NO:9 binding is reversible, the Zn/Compound of SEQ ID NO:9 adduct was suspended in pH 6.8, 50 mM phosphate buffer. A strong chelating agent for Zn(II), EDTA, was added into the suspension in excess amount. The Zn/Compound of SEQ ID NO:9 suspension with and without EDTA was centrifuged and the supernatants were injected into HPLC.

[2] = Solubility of protamine/Compound of SEQ ID NO:9 adduct and in protamine solution; format: physicochemical; settings: MeOH
Description: Thus, the administration of the protamine/Compound of SEQ ID NO:9 adduct may need a suitable suspending agent; or it maybe injected as dry powder.
Therefore, suspension of the compound of SEQ ID NO:9 in the presence of protamine could still provide extended release effect without using pre-formed protamine/SEQ ID NO:9 adduct.

[3] = tested on: ob/ob mice; assay: intraperitoneal glucose tolerance test (ipGTT) after sc injection in ob/ob mice (plasma glucose, insulin); format: in vivo; settings: for effect on postprandial plasma glucose (in words): sc, ipGTT 0-180 or 210 min; for Potency in ob/ob mice, ED50: sc injection, ipGTT, plasma glucose AUC
Method: (§1) Peptides were dissolved in an appropriate vehicle at a concentration in nmol/ml equivalent to the dose that was to be administered in nmol/kg so that each mouse would receive the same volume/weight of dosing solution. Male C57BL/6J-ob/ob mice (10 weeks old) were randomized into groups of 6 mice per group based on fed plasma glucose and body weight. After an overnight fast, mice were weighed and placed in the experimental lab. After 30 min in the environment, the mice were bled via tail tip at −30 min and immediately injected subcutaneously (sc) with vehicle or the peptide dissolved in vehicle (0.1 ml solution/100 g body weight). At time 0 the mice were bled and then injected intraperitoneally with 50% glucose (2 g/kg) to initiate the intraperitoneal glucose tolerance test (ipGTT). The mice were bled 30, 60, 120 and 180 min after the glucose injection. Blood samples were drawn into potassium EDTA, placed on ice during the study and subsequently centrifuged for 10 min at 3000 rpm at 4° C. Plasma samples were diluted 11-fold for glucose analysis in the Cobas System. Another 5 μl plasma sample was diluted 5-fold with 20 μl of Sample Diluent (Insulin ELISA assay kit, Crystal Chem Inc.) and stored at −20° C. for subsequent analysis using the Ultra Sensitive Mouse Insulin ELISA kit (Crystal Chem Inc.).

[4] = Dog pharmacokinetic study (iv and sc, solution vehicles); format: in vivo; settings: for AUC: read-out: AUCtot; for half-life: read-out: t½ (converted)
Method: The pharmacokinetic parameters of the compound of SEQ ID NO:9 were determined in male beagle dogs (n=4, 14±1 kg). Following an overnight fast, each animal received the compound of SEQ ID NO:9 either as an intravenous bolus via femoral vein (67 μg/kg) or by subcutaneous injection given at near the shoulder blades (67 μg/kg). Each animal received both intravenous and subcutaneous doses with a one-week washout between doses following a crossover design. […] Serial blood samples were collected in EDTA-containing microcentrifuge tubes at predose, 0.083, 0.25, 0.5, 0.75, 1, 2, 4, 6, 8, 24, and 30 hours post-dose after intravenous administration; at predose, 0.25, 0.5, 0.75, 1, 2, 4, 6, 8, 24, and 30 hours post-dose after subcutaneous administration. Approximately 0.3 mL of blood was collected at each time point. Blood samples were immediately centrifuged at 4° C. The obtained plasma was frozen with dry ice and stored at −20° C. Plasma drug levels were determined using the LC-MS/MS assay described above.
Plasma samples from in vivo dog study were prepared for analysis by precipitating plasma proteins with two volumes of acetonitrile containing an internal standard. The samples were vortex mixed and removed the precipitated proteins by centrifugation. The resulting supernatants were transferred to a 96-well plate and 10 μL were injected for analysis. Samples were prepared with the Packard Multiprobe II and Quadra 96 Liquid Handling System.
The HPLC system consisted of two Shimadzu LC10AD pumps (Columbia, Md.), a CTC PAL autosampler (Leap Technologies, Switzerland). The column used was a YMC Hydrosphere C18 (2.0×50 mm, 3 μm) (YMC, Inc., Milford, Ma.). The column temperature was maintained at 50° C. and the flow rate was 0.3 mL/minute. The mobile phase A consisted of 10 mM ammonium formate and 0.1% formic acid in water and mobile phase B consisted of 0.1% formic acid in acetonitrile. The initial mobile phase composition was 5% B, and remained at 5% B for one minute to equilibrate the column. The composition was ramped to 95% B over two minutes and held there for one additional minute. The mobile phase was then returned to initial conditions in one minute. Total analysis time was five minutes. A switching valve was used. The eluents between 0-1 minute were diverted to the waste.
The HPLC was interfaced to a Sciex API 4000 mass spectrometer, (Applied Biosystems, Foster City, Calif.) and was equipped with a TurboIonspray ionization source. Ultra high purity nitrogen was used as the nebulizing and turbo gas. The temperature of turbo gas was set at 300° C. and the interface heater was set at 60° C. Data acquisition utilized selected reaction monitoring (SRM). Ions representing the (M+2H)^2+ species for the compound of SEQ ID NO:9, and (M+2H)^2+ for BMS-501143 (IS) were selected in Q1 and were collisionally dissociated with high purity nitrogen at a pressure of 3.5×10^−3torr to form specific product ions which were subsequently monitored by Q3.
The standard curve concentrations, ranging from 1 to 1000 nM and from 4 to 5000 nM, were used for the in vivo samples obtained from low and high doses, respectively. The curves were fitted with a quadratic regression weighted by reciprocal […]. Standards were analyzed in duplicate. Quality control (QC) samples, prepared in blank matrix at the same concentrations as the standard were also analyzed in each analytical set. For the compound of SEQ ID NO:9, the calculated concentrations of more than 80% of the QCs were within 20% of nominal concentration, indicating acceptable assay performance.
The compound of SEQ ID NO:9 plasma concentration vs. time data were analyzed by noncompartmental methods using the […]™ software program. The Cmax and Tmax values were recorded directly from experimental observations. The AUC0-n and AUCtot values were calculated using a combination of linear and log trapezoidal summations. […]

[5] = Exposure during ipGTT in ob/ob mice; format: in vivo; settings: sc
Method: as §1

[6] = male, beagle, plasma, sc, 67 ug/kg, dog, subcutaneous 67 μg/kg, propylene glycol:phosphate buffer (50:50)
[7] = beagle, plasma, 67 ug/kg, dog, intravenous 67 μg/kg, Tables 6A-6C (6A vehicle 0.2 M Tris, pH 8.0)
[8] = beagle, plasma, sc, 67 ug/kg, dog, subcutaneous 67 μg/kg, Tables 6A-6C (vehicle 0.2 M Tris, pH 8.0)

CCc1cc(OC)ccc1-c1ccc(C[C@H](NC(=O)[C@H](CC(=O)O)NC(=O)[C@H](CO)NC(=O)[C@@H](NC(=O)[C@](C)(Cc2ccccc2F)NC(=O)[C@@H](NC(=O)CNC(=O)[C@H](CCC(=O)O)NC(=O)C(C)(C)NC(=O)[C@@H](N)Cc2c[nH]cn2)[C@@H](C)O)[C@@H](C)O)C(=O)N[C@@H](Cc2ccc(-c3ccccc3C)nc2)C(N)=O)cc1 [SEQ ID NO: 9] (H-H[Aib]EGT[αMePhe(2-F)]TSD[Bip(2'-Et-4'-OMe)][Ala(6-(2-MePh)pyridin-3-yl)]-NH2)
solubility thermodynamic ([1]; aqueous buffer, 25° C., excess EDTA): 18 µg/mL | solubility in the presence of Zn(II) / of the Zn adduct (in words) [1]: continued to decrease until below the detection limit of HPLC | solubility [2]: > 50000 µg/mL | % AUC Reduction in Plasma Glucose in an IP Glucose Tolerance Test after SC Injection of Compound ([3]; ob/ob mice, 10 nmol/kg, vs vehicle group): −68% (p < 0.0001) | effect on postprandial plasma glucose (in words) ([3]; ob/ob mice): statistically significant decrease | Potency in ob/ob mice, ED50 [3]: 5 nmol/kg | Potency in ob/ob mice, ED50 ([3]; listed as 9): ED50 = 5 nmoles/kg | Exposure in dogs (sc@67 μg/kg) ([4]; Table I, vehicle 0.2 M Tris buffer (pH 8.0)): 0.452 µM·h | Vss relative to extracellular fluid ([4]; dog, iv, extracellular fluid 0.14 L/kg): 71 % of extracellular fluid | systemic clearance as % of liver blood flow ([4]; dog, iv, liver blood flow 31 mL/min/kg): 3.2 % of liver blood flow | Vss relative to vascular fluid ([4]; dog, iv, vascular fluid 0.05 L/kg): 2 times of vascular fluid | clearance ([4]; male, beagle, blood, 67 ug/kg, dog, intravenous 67 μg/kg, propylene glycol:phosphate buffer (50:50), read-out: CLB (systemic blood clearance)): 0.9 ± 0.2 mL/min/kg | MRT ([4]; male, beagle, plasma, 67 ug/kg, dog, intravenous 67 μg/kg, propylene glycol:phosphate buffer (50:50)): 3 ± 1 h | clearance ([4]; male, beagle, plasma, 67 ug/kg, dog, intravenous 67 μg/kg, propylene glycol:phosphate buffer (50:50), read-out: CLp): 0.6 ± 0.1 mL/min/kg | Vd ([4]; male, beagle, plasma, 67 ug/kg, dog, intravenous 67 μg/kg, propylene glycol:phosphate buffer (50:50), read-out: VSS): 0.1 ± 0.03 L/kg | Cmax [4, 6]: 90 ± 29 nM | Tmax [4, 6]: 5 ± 1 h | Exposure/dose during ipGTT in ob/ob mice [5]: 18 nM * h/nmol/kg

CCc1cc(O)ccc1-c1ccc(C[C@H](NC(=O)[C@H](CC(=O)O)NC(=O)[C@H](CO)NC(=O)[C@@H](NC(=O)C(C)(Cc2ccccc2F)NC(=O)[C@@H](NC(=O)CNC(=O)[C@H](CCC(=O)O)NC(=O)C2(C)CCCN2C(=O)[C@H](Cc2c[nH]cn2)NC(=O)OC)[C@@H](C)O)[C@@H](C)O)C(=O)N[C@@H](Cc2ccc(-c3ccccc3C)nc2)C(N)=O)cc1 (stereo partly drawn) [SEQ ID NO: 158] (Moc-H[ξαMeP]EGT[ξαMePhe(2-F)]TSD[Phe(4-(2-Et-4-HO-Ph))][Ala(6-(2-MePh)pyridin-3-yl)]-NH2)
effect on postprandial plasma glucose (in words) ([3]; ob/ob mice): statistically significant decrease | MRT [4, 7]: 4.9 ± 0.7 h | AUC [4, 7]: 1.39 ± 0.227 µM·h | clearance ([4]; beagle, plasma, 67 ug/kg, dog, intravenous 67 μg/kg, Tables 6A-6C (6A vehicle 0.2 M Tris, pH 8.0), read-out: CLp): 0.51 ± 0.08 mL/min/kg | half-life [4, 7]: 4.4 ± 0.4 h | Cmax [4, 8]: 279 ± 82 nM | MRT [4, 8]: 5.2 ± 1.5 h | Tmax [4, 8]: 1.4 ± 0.7 h | AUC [4, 8]: 1.47 ± 0.563 µM·h | half-life [4, 8]: 3.9 ± 1.3 h | bioavailability ([4]; beagle, plasma, dog, subcutaneous vs intravenous 67 μg/kg, Tables 6A-6C (vehicle 0.2 M Tris, pH 8.0)): 110 ± 49% | Exposure/dose during ipGTT in ob/ob mice [5]: 11 nM * h/nmol/kg
